Key:
Assay type in all cases: cell-based
[1] = molecular target: BaF3 cell lines stably transfected with kinase EGFR Del/T790M/C797S (Homo sapiens, UniProt P00533, T790M/C797S, cells depend on it, form not given); assay: Growth inhibition of BaF3 cell line stably transfected with kinase EGFR Del/T790M/C797S (MTS); conditions: 48 h, read-out: growth inhibitory activity IC50, Del/T790M/C797S
Description: (§1) Biological Activity Assay: Growth Inhibitory Activity of Compounds on Cell Lines Stably Transfected with Kinase
(§2) The activity of compounds against various mutants of kinase EGFR was evaluated by their effect of inhibiting growth of BaF3 cell lines stably transfected with kinase. The specific test method was given as follows:
(§3) 1) Culture medium: DMEM (Dulbecco's modified eagle medium) or RPMI 1640 (containing 10% fetal bovine serum, 100 μg/mL ampicillin, 100 μg/mL streptomycin).
(§4) 2) Reagent: MTS reaction solution (containing 2 mg/mL of MTS [3-(4,5-di methylthiazol-2-yl)-5-(3-carboxymethoxyphenyl)-2-(4-sulfophenyl)-2H-tetrazolium, inner Salt]; 100 μg/mL of PES (phenazine […])).
(§5) 3) Compound test: cells were incubated into a 96-well culture plate, the volume of cytosol was 90 μL, and then 10 μL of the compound at each gradient concentration was added. That is, the highest concentration was 10 μM, which was diluted stepwise by ⅓, and 8 concentration points were set in total; 0.1% DMSO (dimethyl sulfoxide) was contained in the system. The cell plate with uniformly mixed compound was cultured in a cell culture incubator (37° C.; 5% […]) for 48 h, then 20 μL of MTS reaction solution was added, uniformly mixed and incubated in the cell culture incubator (37° C.; 5% CO2) for 1-4 h; OD values at 490 nm were measured by a microplate reader (VARIOSKAN FLASH, Thermo). Two parallels were set in each group of experiments, with 0.1% (a final concentration) DMSO as a negative control, and a culture medium without cells and compounds as a blank control. The cell growth inhibition rate was calculated by the following formula: Cell growth inhibition rate %=1−(ODexperimental group−ODblank group)/(ODnegative group−ODblank group)×100%.
(§6) 4) IC50 calculation: The semi-inhibitory concentration of the compounds acting on cells was calculated using GradPad Prism 5 software according to the measured cell growth inhibition rate.

[2] = molecular target: BaF3 cell lines stably transfected with kinase EGFR L858R (Homo sapiens, UniProt P00533, L858R, cells depend on it); assay: Growth inhibition of BaF3 cell line stably transfected with kinase EGFR L858R (MTS); conditions: 48 h, read-out: growth inhibitory activity IC50, L858R
Description: as §1, §2, §3, §4, §5, §6

[3] = molecular target: BaF3 cell lines stably transfected with kinase EGFR L858R/T790M (Homo sapiens, UniProt P00533, T790M/L858R, cells depend on it); assay: Growth inhibition of BaF3 cell line stably transfected with kinase EGFR L858R/T790M (MTS); conditions: 48 h, read-out: growth inhibitory activity IC50, L858R/T790M
Chain of BaF3 cell lines stably transfected with kinase EGFR L858R/T790M (P00533 whole entry T790M/L858R): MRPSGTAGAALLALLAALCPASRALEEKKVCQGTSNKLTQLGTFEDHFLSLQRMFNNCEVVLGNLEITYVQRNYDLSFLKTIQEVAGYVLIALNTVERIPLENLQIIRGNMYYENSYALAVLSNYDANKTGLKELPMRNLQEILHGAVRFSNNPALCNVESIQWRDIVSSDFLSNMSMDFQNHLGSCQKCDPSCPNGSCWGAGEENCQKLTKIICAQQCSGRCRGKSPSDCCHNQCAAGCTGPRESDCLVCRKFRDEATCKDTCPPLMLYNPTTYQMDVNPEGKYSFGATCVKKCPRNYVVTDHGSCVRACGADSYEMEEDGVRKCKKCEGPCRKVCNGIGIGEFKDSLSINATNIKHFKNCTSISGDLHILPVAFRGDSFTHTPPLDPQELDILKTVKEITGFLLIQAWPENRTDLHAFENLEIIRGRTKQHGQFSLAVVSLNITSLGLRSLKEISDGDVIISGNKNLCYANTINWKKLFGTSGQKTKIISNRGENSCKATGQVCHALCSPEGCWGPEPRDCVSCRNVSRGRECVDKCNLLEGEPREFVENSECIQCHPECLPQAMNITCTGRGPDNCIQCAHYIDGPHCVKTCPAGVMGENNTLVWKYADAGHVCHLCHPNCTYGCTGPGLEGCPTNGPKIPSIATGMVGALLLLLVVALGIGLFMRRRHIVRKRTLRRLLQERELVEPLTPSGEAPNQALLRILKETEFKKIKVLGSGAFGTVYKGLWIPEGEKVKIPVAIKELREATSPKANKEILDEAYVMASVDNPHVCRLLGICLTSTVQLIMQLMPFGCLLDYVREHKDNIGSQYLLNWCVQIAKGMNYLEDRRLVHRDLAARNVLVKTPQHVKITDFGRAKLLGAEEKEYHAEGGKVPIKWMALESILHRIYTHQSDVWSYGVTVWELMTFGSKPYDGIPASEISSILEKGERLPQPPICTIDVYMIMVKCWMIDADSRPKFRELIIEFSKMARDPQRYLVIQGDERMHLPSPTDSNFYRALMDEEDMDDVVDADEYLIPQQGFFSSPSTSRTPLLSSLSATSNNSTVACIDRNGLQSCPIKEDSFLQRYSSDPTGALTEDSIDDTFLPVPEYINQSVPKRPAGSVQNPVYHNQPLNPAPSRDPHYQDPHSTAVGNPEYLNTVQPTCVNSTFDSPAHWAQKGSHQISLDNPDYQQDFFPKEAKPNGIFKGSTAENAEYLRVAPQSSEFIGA
Description: as §1, §2, §3, §4, §5, §6

[4] = molecular target: BaF3 cell lines stably transfected with kinase EGFR L858R/T790M/C797S (Homo sapiens, UniProt P00533, T790M/C797S/L858R, cells depend on it); assay: Growth inhibition of BaF3 cell line stably transfected with kinase EGFR L858R/T790M/C797S (MTS); conditions: 48 h, read-out: growth inhibitory activity IC50, L858R/T790M/C797S
Description: as §1, §2, §3, §4, §5, §6

[5] = molecular target: BaF3 cell lines stably transfected with kinase EGFR Del (Homo sapiens, UniProt P00533, cells depend on it, form not given); assay: Growth inhibition of BaF3 cell line stably transfected with kinase EGFR Del (MTS); conditions: 48 h, read-out: growth inhibitory activity IC50, Del
Chain of BaF3 cell lines stably transfected with kinase EGFR Del (P00533 with tags, fused parts or gaps DEL746-750): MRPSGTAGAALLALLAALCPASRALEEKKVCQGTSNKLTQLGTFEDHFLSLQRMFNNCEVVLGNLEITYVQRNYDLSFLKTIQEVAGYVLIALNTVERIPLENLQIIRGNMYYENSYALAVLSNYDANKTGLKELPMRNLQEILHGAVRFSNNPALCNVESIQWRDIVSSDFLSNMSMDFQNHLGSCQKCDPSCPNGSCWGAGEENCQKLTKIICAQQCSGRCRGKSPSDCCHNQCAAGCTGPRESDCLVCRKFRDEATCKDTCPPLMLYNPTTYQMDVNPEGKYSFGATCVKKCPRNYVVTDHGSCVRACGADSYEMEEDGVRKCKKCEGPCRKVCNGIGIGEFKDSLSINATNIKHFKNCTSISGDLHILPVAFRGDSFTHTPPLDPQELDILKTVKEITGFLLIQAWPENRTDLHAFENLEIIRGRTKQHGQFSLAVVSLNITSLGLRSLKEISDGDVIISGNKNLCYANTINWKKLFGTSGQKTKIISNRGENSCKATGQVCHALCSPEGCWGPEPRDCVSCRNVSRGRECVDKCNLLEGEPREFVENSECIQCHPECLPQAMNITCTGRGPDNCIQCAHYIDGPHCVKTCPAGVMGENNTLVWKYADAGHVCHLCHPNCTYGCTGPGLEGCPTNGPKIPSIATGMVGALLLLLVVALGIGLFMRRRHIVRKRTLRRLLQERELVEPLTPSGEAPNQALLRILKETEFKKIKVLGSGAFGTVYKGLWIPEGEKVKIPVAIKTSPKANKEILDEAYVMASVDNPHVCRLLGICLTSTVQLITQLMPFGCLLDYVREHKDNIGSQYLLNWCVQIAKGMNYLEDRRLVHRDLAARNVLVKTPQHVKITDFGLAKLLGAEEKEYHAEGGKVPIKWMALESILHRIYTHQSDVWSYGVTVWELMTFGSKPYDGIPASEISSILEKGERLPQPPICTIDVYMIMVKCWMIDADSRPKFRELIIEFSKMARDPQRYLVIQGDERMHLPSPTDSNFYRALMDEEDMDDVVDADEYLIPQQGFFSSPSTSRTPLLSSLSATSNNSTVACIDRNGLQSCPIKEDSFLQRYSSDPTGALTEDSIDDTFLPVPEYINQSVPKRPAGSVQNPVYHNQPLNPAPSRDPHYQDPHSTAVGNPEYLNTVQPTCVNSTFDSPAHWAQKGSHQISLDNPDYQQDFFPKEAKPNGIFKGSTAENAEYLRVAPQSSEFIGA
Description: as §1, §2, §3, §4, §5, §6

[6] = molecular target: BaF3 cell lines stably transfected with kinase EGFR Del/T790M (Homo sapiens, UniProt P00533, T790M, cells depend on it, form not given); assay: Growth inhibition of BaF3 cell line stably transfected with kinase EGFR Del/T790M (MTS); conditions: 48 h, read-out: growth inhibitory activity IC50, Del/T790M
Chain of BaF3 cell lines stably transfected with kinase EGFR Del/T790M (P00533 with tags, fused parts or gaps DEL746-750/T790M, form open): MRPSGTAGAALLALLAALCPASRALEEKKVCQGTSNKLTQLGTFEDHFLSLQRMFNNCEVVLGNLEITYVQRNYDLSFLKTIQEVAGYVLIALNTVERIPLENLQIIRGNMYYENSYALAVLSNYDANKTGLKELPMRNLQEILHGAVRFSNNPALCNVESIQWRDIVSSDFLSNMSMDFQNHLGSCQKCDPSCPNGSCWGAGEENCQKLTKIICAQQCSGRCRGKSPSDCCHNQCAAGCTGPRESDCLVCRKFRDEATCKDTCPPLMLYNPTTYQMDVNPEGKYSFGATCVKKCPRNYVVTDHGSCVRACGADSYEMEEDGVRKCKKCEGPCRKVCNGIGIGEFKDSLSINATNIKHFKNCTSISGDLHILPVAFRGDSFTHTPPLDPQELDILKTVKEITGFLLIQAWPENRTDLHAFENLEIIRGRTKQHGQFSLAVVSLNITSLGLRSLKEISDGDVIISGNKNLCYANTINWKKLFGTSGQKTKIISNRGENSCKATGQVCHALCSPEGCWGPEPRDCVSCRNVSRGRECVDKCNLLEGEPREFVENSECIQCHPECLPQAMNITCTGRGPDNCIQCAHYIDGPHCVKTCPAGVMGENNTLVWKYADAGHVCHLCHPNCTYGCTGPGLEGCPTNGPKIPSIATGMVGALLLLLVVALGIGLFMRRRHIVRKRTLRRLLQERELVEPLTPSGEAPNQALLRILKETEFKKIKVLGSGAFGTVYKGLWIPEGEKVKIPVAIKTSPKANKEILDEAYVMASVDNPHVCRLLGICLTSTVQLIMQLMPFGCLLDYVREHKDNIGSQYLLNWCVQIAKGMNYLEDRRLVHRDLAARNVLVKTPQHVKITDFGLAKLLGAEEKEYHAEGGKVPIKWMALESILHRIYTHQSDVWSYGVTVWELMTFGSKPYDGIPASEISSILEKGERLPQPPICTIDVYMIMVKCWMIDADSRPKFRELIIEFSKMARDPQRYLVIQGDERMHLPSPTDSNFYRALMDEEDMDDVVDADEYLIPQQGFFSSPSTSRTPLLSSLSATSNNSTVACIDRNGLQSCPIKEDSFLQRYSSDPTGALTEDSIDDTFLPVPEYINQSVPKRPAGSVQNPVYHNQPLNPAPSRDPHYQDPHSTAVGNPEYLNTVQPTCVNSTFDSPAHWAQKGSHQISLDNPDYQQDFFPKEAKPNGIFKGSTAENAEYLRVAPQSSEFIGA
Description: as §1, §2, §3, §4, §5, §6

Measured: GI50

Chain of BaF3 cell lines stably transfected with kinase EGFR Del/T790M/C797S (P00533 with tags, fused parts or gaps DEL746-750/T790M/C797S, form open): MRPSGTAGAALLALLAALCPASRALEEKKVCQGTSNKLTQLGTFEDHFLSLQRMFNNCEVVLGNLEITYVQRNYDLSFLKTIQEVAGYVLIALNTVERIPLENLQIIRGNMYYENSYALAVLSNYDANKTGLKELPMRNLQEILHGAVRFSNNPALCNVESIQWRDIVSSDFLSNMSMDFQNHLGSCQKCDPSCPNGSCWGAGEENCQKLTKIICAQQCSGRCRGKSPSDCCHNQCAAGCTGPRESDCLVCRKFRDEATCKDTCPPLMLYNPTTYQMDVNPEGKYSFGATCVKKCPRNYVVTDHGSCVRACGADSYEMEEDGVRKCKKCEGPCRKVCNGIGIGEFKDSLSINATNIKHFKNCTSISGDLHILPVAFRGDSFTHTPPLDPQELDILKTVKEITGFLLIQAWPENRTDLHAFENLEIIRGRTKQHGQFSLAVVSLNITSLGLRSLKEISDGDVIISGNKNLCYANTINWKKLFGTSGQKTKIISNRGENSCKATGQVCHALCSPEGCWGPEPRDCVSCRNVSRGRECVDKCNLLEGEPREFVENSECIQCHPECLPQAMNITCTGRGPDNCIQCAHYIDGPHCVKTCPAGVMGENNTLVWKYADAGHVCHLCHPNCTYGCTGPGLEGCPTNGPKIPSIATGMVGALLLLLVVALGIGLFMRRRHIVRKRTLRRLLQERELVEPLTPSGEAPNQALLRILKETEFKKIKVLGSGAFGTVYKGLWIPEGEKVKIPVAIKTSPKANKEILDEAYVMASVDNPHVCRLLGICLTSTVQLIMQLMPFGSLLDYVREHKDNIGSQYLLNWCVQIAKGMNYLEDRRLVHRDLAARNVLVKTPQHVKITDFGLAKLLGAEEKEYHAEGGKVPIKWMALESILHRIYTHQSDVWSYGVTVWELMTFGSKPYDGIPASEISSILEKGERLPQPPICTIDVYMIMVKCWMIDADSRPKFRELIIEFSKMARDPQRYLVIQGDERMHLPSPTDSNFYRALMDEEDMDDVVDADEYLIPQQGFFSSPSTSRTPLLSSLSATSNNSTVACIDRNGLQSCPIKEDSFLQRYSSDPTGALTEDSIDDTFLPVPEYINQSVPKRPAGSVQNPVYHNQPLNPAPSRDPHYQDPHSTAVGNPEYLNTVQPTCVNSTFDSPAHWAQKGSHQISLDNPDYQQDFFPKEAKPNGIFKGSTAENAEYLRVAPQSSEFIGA

C=Cc1cnc(Nc2cc(CC3CC3)c(N3CCC(N4CCN(C)CC4)CC3)cc2OC)nc1Nc1ccc2nccnc2c1S(C)(=O)=O [III-13]
500 to 2500 nM: [1] | [2] | [4]
50 to 500 nM: all other assays above

C=Cc1cnc(Nc2cc(CC)c(N3CCC(N4CCN(C)CC4)CC3)cc2OC)nc1Nc1ccc2nccnc2c1NS(C)(=O)=O [II-32]
≤ 50 nM: [2] | [5] | [6]
50 to 500 nM: all other assays above

C=Cc1cnc(Nc2cc(CC)c(N3CCC(N(C)C)CC3)cc2OC)nc1Nc1ccc2nccnc2c1N(C)S(C)(=O)=O [II-2]
≤ 50 nM: all assays above

C=Cc1cnc(Nc2cc(CC)c(N3CCC(N4CCN(C)CC4)CC3)cc2OC(F)(F)F)nc1Nc1ccc2nccnc2c1S(C)(=O)=O [III-5]
50 to 500 nM: [3]
500 to 2500 nM: all other assays above

C=Cc1cnc(Nc2cc(CC)c(N3CCC(N4CCN(C)CC4)CC3)cc2OC)nc1Nc1ccc2nccnc2c1N(CC)S(C)(=O)=O [II-12]
≤ 50 nM: all assays above

C=Cc1cnc(Nc2cc(CC)c(N3CCC(N(C)C)C3)cc2OC)nc1Nc1ccc2nccnc2c1S(=O)(=O)NC (stereo not drawn) [IV-14]
50 to 500 nM: all assays above

CCc1cc(Nc2ncc(/C=C/c3ccccc3)c(Nc3ccc4nccnc4c3N(C)S(C)(=O)=O)n2)c(OC)cc1N1CCC(N2CCN(C)CC2)CC1 [II-29]
50 to 500 nM: [2] | [5]
500 to 2500 nM: all other assays above

C=Cc1cnc(Nc2cc3c(cc2C)CCN(C)C3)nc1Nc1ccc2nccnc2c1N(C)S(C)(=O)=O [II-72]
500 to 2500 nM: [6]
≤ 50 nM: [4]
50 to 500 nM: all other assays above

CCc1cc(Nc2ncc(C3=CCCC3)c(Nc3ccc4nccnc4c3P(C)(C)=O)n2)c(OC)cc1N1CCC(N2CCN(C)CC2)CC1 [Compound I-13]
≤ 50 nM: [2] | [5]
50 to 500 nM: all other assays above

C=Cc1cnc(Nc2cc(CC)c(N3CCC(N(C)C)CC3)cc2OC)nc1Nc1ccc2nccnc2c1S(=O)(=O)NC [IV-13]
50 to 500 nM: all assays above

C=Cc1cnc(Nc2cc(CC)c(N3CCC(N4CCN(C)CC4)CC3)cc2OC)nc1Nc1ccc2nccnc2c1N(C)S(C)(=O)=O [II-1]
≤ 50 nM: all assays above

C=Cc1cnc(Nc2cc(C(C)C)c(N3CCC(N4CCN(C)CC4)CC3)cc2OC)nc1Nc1ccc2nccnc2c1N(C)S(C)(=O)=O [II-17]
500 to 2500 nM: [2]
50 to 500 nM: all other assays above

CCc1cc(Nc2ncc(/C=C/C3CC3)c(Nc3ccc4nccnc4c3N(C)S(C)(=O)=O)n2)c(OC)cc1N1CCC(N2CCN(C)CC2)CC1 [II-28]
50 to 500 nM: [2]
≤ 50 nM: [5]
500 to 2500 nM: all other assays above

C=Cc1cnc(Nc2cc(CC)c(N3CCN(C)CC3)cc2OC)nc1Nc1ccc2nccnc2c1N(C)S(C)(=O)=O [II-4]
≤ 50 nM: all assays above

C=Cc1cnc(Nc2cc(CC)c(N3CCC(N4CCN(C)CC4)CC3)cc2OC(F)(F)F)nc1Nc1ccc2nccnc2c1NS(C)(=O)=O [II-34]
50 to 500 nM: all assays above

C=Cc1cnc(Nc2cc(CC)c(N3CCC(N4CCN(C)CC4)CC3)nc2OC)nc1Nc1ccc2nccnc2c1S(=O)(=O)NC [IV-4]
500 to 2500 nM: [1] | [2] | [5]
50 to 500 nM: all other assays above

C=Cc1cnc(Nc2cc3c(cc2OC)CCN(C)C3)nc1Nc1ccc2nccnc2c1N(C)S(C)(=O)=O [II-73]
50 to 500 nM: [4]
500 to 2500 nM: all other assays above

C=Cc1cnc(Nc2cc(CC)c(N3CCC(N4CCN(C)CC4)CC3)cc2OC)nc1Nc1ccc2nccnc2c1S(=O)(=O)NC [IV-3]
50 to 500 nM: all assays above

C=Cc1cnc(Nc2ccc(N3CCC(N4CCN(C)CC4)CC3)cc2OC)nc1Nc1ccc2nccnc2c1NS(=O)(=O)C(C)C [II-42]
50 to 500 nM: [4]
500 to 2500 nM: all other assays above

C=Cc1cnc(Nc2ccc(N3CCC(N4CCN(C)CC4)CC3)c(F)c2F)nc1Nc1ccc2nccnc2c1S(=O)(=O)NC [IV-10]
≤ 50 nM: [3]
50 to 500 nM: all other assays above

C=Cc1cnc(Nc2cc(F)c(N3CCC(N4CCN(C)CC4)CC3)c(F)c2)nc1Nc1ccc2nccnc2c1S(=O)(=O)NC [IV-11]
≤ 50 nM: [3]
50 to 500 nM: all other assays above

C=Cc1cnc(Nc2cc(C3CC3)c(N3CCC(N4CCN(C)CC4)CC3)cc2OC)nc1Nc1ccc2nccnc2c1NS(C)(=O)=O [II-36]
50 to 500 nM: [1] | [3]
≤ 50 nM: all other assays above

C=Cc1cnc(Nc2ccn(CC)n2)nc1Nc1ccc2nccnc2c1N(C)S(C)(=O)=O [II-60]
500 to 2500 nM: [3] | [6]
50 to 500 nM: all other assays above

CCc1cc(Nc2ncc(/C=C/C3CC3)c(Nc3ccc4nccnc4c3P(C)(C)=O)n2)c(OC)cc1N1CCC(N2CCN(C)CC2)CC1 [Compound I-11]
≤ 50 nM: [2] | [5]
50 to 500 nM: all other assays above

C=C(C)c1cnc(Nc2cc(CC)c(N3CCC(N4CCN(C)CC4)CC3)cc2OC)nc1Nc1ccc2nccnc2c1P(C)(C)=O [Compound I-15]
≤ 50 nM: all assays above

C=Cc1cnc(Nc2cc(CC)c(N(C)CCN(C)C)cc2OC)nc1Nc1ccc2nccnc2c1N(C)S(C)(=O)=O [II-51]
500 to 2500 nM: [2]
50 to 500 nM: all other assays above

C=Cc1cnc(Nc2cc(C)c(N3CCC(N4CCN(C)CC4)CC3)cc2OC)nc1Nc1ccc2nccnc2c1S(=O)(=O)C(C)C [III-19]
500 to 2500 nM: [1]
50 to 500 nM: all other assays above

C=Cc1cnc(Nc2cc(CC)c(N3CCC(N4CCN(C)CC4)CC3)cc2OC)nc1Nc1ccc2nccnc2c1S(=O)(=O)C(C)C [III-6]
50 to 500 nM: all assays above

From patent US12679822B2, “Alkenyl pyrimidine compound, preparation method therefor, and application thereof” (Hongyun Biotech Co., Ltd., priority 2020, dated 2026)
